One compound from US20230057984A1, “NORMALIZATION OF CULTURE OF CORNEAL ENDOTHELIAL CELLS” (KYOTO PREFECTURAL PUBLIC UNIVERSITY CORPORATION, priority 2011, published 2023) can be followed below.

The test system of this assay is Cynomolgus monkey corneal endothelial cells. Briefly: Immunostaining of Na+/K+-ATPase and ZO-1 in monkey corneal endothelial cells (Example 3). The format is cell-based. The note with it: monkey CEC treated with SB431542; control lost its staining. As for the experimental part:
Phosphatase inhibitor cocktail 2 (Sigma-Aldrich) and protease inhibitor cocktail (Nacalai Tesque, Inc., Kyoto city) were added to the aforementioned RIPA buffer. The obtained cell lysate was centrifuged (15,000 rpm, 10 minutes) where the supernatant thereof was collected, and the protein was quantitated using a BCA PROTEIN ASSAY KIT (PIERCE (catalog number: 23227)). Dissolution was performed using 100 μl dissolution buffer (Laemmli sample buffer) including 5 mM 2-mercaptoethanol (Nacalai Tesque (catalog number: 21418-42)). • Immunostaining: after washing cells which had reached confluency with PBS (Nissui, catalog number: 5913), the cells were fixed for 10 minutes with iced ethanol (Nacalai Tesque, catalog number: 14713-95) and acetic acid (WAKO catalog number:017-00256) (95:5).
Blocking was performed via incubation for 1 hour with 0.1% (vol/vol) polyethylene sorbitan monolaurate (Nacalai Tesque, catalog number: 28353-85) (TBS-T) and Tris buffered saline (10 mM Tris-HCl, pH7.4; 100 mM NaCl) with 10% fetal bovine serum. […]
Next, reaction was allowed for 1 hour at a room temperature with ALEXA FLUOR 488 (INVITROGEN (catalog number: A21206)) and ALEXA FLUOR 594 (INVITROGEN (catalog number: A21203)), diluted with TBS-T by 1,000 fold. […] After washing, bands were detected using an ECL-ADVAVCE Western Blotting Detection Kit (GE healthcare Japan (catalog number: RPN2135V)). […]

For `NC(=O)c1ccc(-c2nc(-c3ccc4c(c3)OCO4)c(-c3ccccn3)[nH]2)cc1` [SB431542], the “plasma membrane staining of Na+/K+-ATPase and ZO-1 (immunostaining)” value was “characteristic plasma membrane staining of Na^+/K^+-ATPase and ZO-1”.
